Test results from patent US12178786B2, “Combination of cellular immunotherapy” (CRAGE medical Co., Limited, priority 2018, dated 2024).

Tests used:
[1] = compound II administrated alone in the clinical trial; cited from earlier work
IL2 = experiment: Effect of sorafenib on cytokine secretion of CAR T cells (Cytometric Bead Array); assay type: cell-based, human; conditions: general statement of the applicant's finding
Experimental: As for the specific steps, referring to the steps in the manual of The Cytometric Bead Array System (BD, USA), which are briefly described as follows:
b) The microspheres (cytometric bead array system, BD, USA) capturing the human cytokine IL2, IFN-γ, and TNF-α are taken to mix in a suspension.
c) The mixture of the microspheres for capturing and detection antibody are added into the standard or supernatant sample, incubating at room temperature in the dark; after the incubation is completed, it is washed with washing buffer, then centrifuging, and discarding the supernatant.
The secretion levels of IL-2, IFN-γ and TNF-α are detected by flow cytometry, and the results are shown in FIGS. 8A, 8B, and 8C, wherein ns means p>0.05; *p<0.05; **p<0.01; ***p<0.001, one-way ANOVA.

## CNC(=O)c1cc(Oc2ccc(NC(=O)Nc3ccc(Cl)c(C(F)(F)F)c3)cc2)ccn1 [sorafenib]
[1]
  approximate concentration in the patient's body: ~6.5 µM
IL2
  secretion of the cytokine IL2 by CAR T cells: promote CAR T cells to secrete the cytokine IL2
